Earlier results on 2 compounds are cited in patent US20090275559A1, “Chronotherapeutic formulations of modified-release calcium channel blocker anti-hypertensive drugs in combination with other anti-hypertensive drugs for 24-hour optimal treatment of hypertension, nocturnal hypertension, and/or hypertension with angina” (Blue Note Pharmaceuticals, Inc., priority 2008, published 2009).

For series [1] the following is noted: extensive first-pass metabolism in the liver.
The conditions of series [2]: low pHs (0.1 N HCl).

Each structure is given as a SMILES string.

On to `COc1ccc([C@@H]2Sc3ccccc3N(CCN(C)C)C(=O)[C@@H]2OC(C)=O)cc1` [diltiazem], for which the plasma half-life in series [1] is 2 to 6 h. As for `CCCCC1=NC2(CCCC2)C(=O)N1Cc1ccc(-c2ccccc2-c2nnn[nH]2)cc1` [Irbesartan], the water solubility result in series [2] was “low”.
